After the bases stand the sugars from the 5' end (letter, count) and the backbone: PS all phosphorothioate, else s phosphorothioate and o phosphodiester by linkage. Methylation of C is not given here. e = 2'-O-(2-methoxyethyl) (MOE); k = constrained ethyl (cEt); d = 2'-deoxy (DNA); m = 2'-O-methyl
Target: HSD17B13
Conditions: ASO, HepaRG

Sequence	target mRNA inhibition (1 µM) [%]	further results
TGTGGCATGGCTACAG (sugars k3 d9 k3 e1, PS)	25	–
TGTGGCATGGCTACAG (sugars k3 d10 k3, PS)	24	–
TGTGTAGTCCTAGGGA (sugars k3 d10 k3, PS)	50	–
TGTGTTCTTGTTGATA (sugars k3 d10 k3, PS)	69	–
TGTGUTCTTGTTGATA (sugars k3 d1 m1 d8 k3, PS)	41	–
TGTTAACCTGCAGCAG (sugars k3 d10 k3, PS)	39	–
TGTTACATCACCCACT (sugars k3 d10 k3, PS)	35	–
TGTTAGGACCCAGTCT (sugars k3 d10 k3, PS)	51	–
TGTTGACCTCAAATGT (sugars k3 d10 k3, PS)	14	–
TGTTGATATTCTGTGG (sugars kkdddddddddkekek, PS)	54	–
TGTTTATGTAAGCACA (sugars k3 d10 k3, PS)	74	–
TTAAACCTTCCCTGTG (sugars k3 d9 k3 e1, PS)	18	–
TTAAACTCCAATGTGT (sugars k3 d10 k3, PS)	36	–
TTAAAGACAGGGTGGT (sugars k3 d10 k3, PS)	21	–
TTAAGATACCCAGGTT (sugars k3 d1 m1 d8 k3, PS)	30	–
TTAAGCAGAATTGTGA (sugars k3 d10 k3, PS)	7	–
TTAAGCATTGTTAGCT (sugars k3 d10 k3, PS)	16	–
TTAATCATGGGACAGG (sugars k3 d10 k3, PS)	27	–
TTAAUGCCACCCTACC (sugars k3 d1 m1 d8 k3, PS)	8	–
TTACAACCTGGTTTCA (sugars k3 d10 k3, PS)	25	–
TTACAGCATCAAGACA (sugars k3 d1 m1 d8 k3, PS)	46	–
TTACATATCAATGCCT (sugars k3 d10 k3, PS)	12	–
TTACATTACAGCCTTA (sugars k3 d10 k3, PS)	67	target mRNA inhibition (0.02 µM): 0%; target mRNA inhibition (0.078 µM): 0%; target mRNA inhibition (0.313 µM): 19%; target mRNA inhibition (1.25 µM): 56%; target mRNA inhibition (5 µM): 80%
TTAGAGAGCGATAGAT (sugars k3 d10 k3, PS)	23	–
TTAGTATAGTTATCTT (sugars k3 d9 k3 e1, PS)	45	–
TTAGTATAGTTATCTT (sugars k3 d10 k3, PS)	37	–
TTAGUTAGAATAGTCT (sugars k3 d1 m1 d8 k3, PS)	35	–

Sequence	target mRNA inhibition (1 µM) [%]	further results
TTATAACTACAAGAGG (sugars k3 d1 m1 d8 k3, PS)	58	–
TTATCATACCACATAC (sugars k3 d10 k3, PS)	19	–
TTATGATAATTTGGTG (sugars k3 d10 k3, PS)	0	–
TTATGTAATAGCCAGT (sugars k3 d1 m1 d8 k3, PS)	56	–
TTATGTAATAGCCAGT (sugars kkdddddddddkekek, PS)	63	–
TTATGTGATTGAGTTC (sugars k3 d1 m1 d8 k3, PS)	35	–
TTATTGTAGGGATTGA (sugars k3 d10 k3, PS)	63	–
TTCAACTAAACATGAC (sugars k3 d10 k3, PS)	55	–
TTCACCAACGACTCCA (sugars k3 d10 k3, PS)	62	–
TTCAGTTAGCAGCTAA (sugars k3 d10 k3, PS)	72	target mRNA inhibition (0.02 µM): 0%; target mRNA inhibition (0.078 µM): 0%; target mRNA inhibition (0.313 µM): 26%; target mRNA inhibition (1.25 µM): 63%; target mRNA inhibition (5 µM): 82%
TTCATAAGTAGTCTGC (sugars k3 d10 k3, PS)	64	–
TTCATAGTGGACTTCA (sugars k3 d10 k3, PS)	51	–
TTCCGTCTCACAATCT (sugars k3 d10 k3, PS)	79	target mRNA inhibition (0.02 µM): 10%; target mRNA inhibition (0.078 µM): 13%; target mRNA inhibition (0.313 µM): 49%; target mRNA inhibition (1.25 µM): 83%; target mRNA inhibition (5 µM): 80%
TTCTAGGTCAGTAGAG (sugars k3 d10 k3, PS)	58	–
TTCTATTAGTTGGCCT (sugars k3 d10 k3, PS)	28	–
TTCTCTTGGGTCCATT (sugars k3 d10 k3, PS)	44	–
TTCTGATGTCAGACCT (sugars k3 d10 k3, PS)	42	–
TTCTGTGGCATGGCTA (sugars k3 d1 m1 d8 k3, PS)	65	–
TTCTGTGGCATGGCTA (sugars k3 d9 k3 e1, PS)	59	–
TTGAACAGTCTTAAAC (sugars k3 d1 m1 d8 k3, PS)	11	–
TTGAACAGTCTTAAAC (sugars kkdddddddddkekek, PS)	37	–
TTGAATAGCAAGCCAA (sugars k3 d9 k3 e1, PS)	33	–
TTGACATAACTTCATA (sugars k3 d10 k3, PS)	15	–
TTGACCTCAAATGTCT (sugars k3 d10 k3, PS)	0	–
TTGACTGCTGCTAGTG (sugars k3 d1 m1 d8 k3, PS)	40	–
TTGAGAGAACTTATAC (sugars k3 d10 k3, PS)	21	–
